Results from patent US6563002B2, “Biscyclopropanecarboxamide compounds and pharmaceutical use thereof” (Ajinomoto Co., Inc., priority 1999, dated 2003).
Converted amounts (≈) assume the structure as drawn.

Tested on: NF-kappa B
Experiment: Evaluation of inhibition of NF-kappa B: β-gal reporter in immortalized HUVEC induced with IL-1β
Type: cell-based
Conditions: Homo sapiens; HUVEC with NF-kappa B-driven β-gal reporter; 1 ng/ml IL-1β added 30 minutes after compound; β-gal activity determined 16 hours after; read-out: NFkB inhibiting activity IC50
Source text: Evaluation of Inhibition of NF-Kappa B:
Cells used in the tests were obtained by stably introducing E. coli β-galactosidase (β-gal) genes into human normal umbilical vein endothelial cells (HUVEC) immortalized with SV 40 large T antigen. The genes were those driven by SV40 minimum promoter fused with 6 times of the NF-kappa B binding motif derived, from immunoglobulin kappa light-chain enhancer. The cells were subcultured in RPMI medium containing 10% of FBS, and spread on 96-well plates in a concentration of 1×10^4/well the day before the initiation of the experiments. The compound of the present invention was dissolved in DMSO in a suitable concentration and fed into the 96-well plates so that the final concentration of DMSO would be not higher than 1%. 30 minutes after the addition of the compound, NF-kappa B activity was induced with 1 ng/ml of IL-1β in each well. The β-gal activity was determined 16 hours after. The β-gal activity was determined with a chemical photogenic substrate (Galacton-Light-Plus: Boehringer Mannheim) according to the protocol attached to the reagent.

SMILES: CC1(C)CC1C(=O)Nc1ccc(C(O)c2ccccc2)cc1NC(=O)C1CC1(C)C (stereo not shown) [Example 2]
- IC50: 1 µg/mL (≈ 2.46 µM)
